PMC6321475, “Synthesis and Evaluation of the 4-Substituted 2-Hydroxy-5-Iodochalcones and Their 7-Substituted 6-Iodoflavonol Derivatives for Inhibitory Effect on Cholinesterases and β-Secretase” (International Journal of Molecular Sciences, 2018)
Where two headings read alike, the source gives them in different places.

Columns and labels:
Type in all cases: biochemical
[1] = target: acetylcholinesterase (AChE) (Homo sapiens, UniProt P22303); assay: biochemical
[2] = target: butyrylcholinesterase (BChE) (Homo sapiens, UniProt P06276); assay: biochemical
butyrylcholinesterase (BChE), sequence (P06276 29-602): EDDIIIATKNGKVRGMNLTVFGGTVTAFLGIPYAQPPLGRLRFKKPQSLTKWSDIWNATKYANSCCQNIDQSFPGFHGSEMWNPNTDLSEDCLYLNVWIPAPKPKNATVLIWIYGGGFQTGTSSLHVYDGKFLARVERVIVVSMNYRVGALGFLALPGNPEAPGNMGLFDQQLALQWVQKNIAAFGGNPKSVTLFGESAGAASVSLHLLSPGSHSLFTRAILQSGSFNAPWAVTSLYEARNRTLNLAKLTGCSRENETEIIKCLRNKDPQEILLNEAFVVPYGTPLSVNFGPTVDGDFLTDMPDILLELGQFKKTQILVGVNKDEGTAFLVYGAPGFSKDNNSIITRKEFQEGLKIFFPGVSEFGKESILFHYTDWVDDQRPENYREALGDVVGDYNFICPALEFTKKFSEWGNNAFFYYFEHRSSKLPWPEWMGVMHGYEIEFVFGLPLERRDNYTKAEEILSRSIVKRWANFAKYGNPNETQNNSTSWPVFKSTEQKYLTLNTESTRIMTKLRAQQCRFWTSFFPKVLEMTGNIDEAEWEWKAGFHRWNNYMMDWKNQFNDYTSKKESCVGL

[3] = target: T1, BACE-1 (Homo sapiens, UniProt P56817); assay: In vitro BACE-1 inhibitory FRET assay; settings: 60 min at 25 °C, pH 4.5
T1 construct: purchased Pan Vera; host or cells: baculovirus-expressed
T1 sequence (P56817 46-501): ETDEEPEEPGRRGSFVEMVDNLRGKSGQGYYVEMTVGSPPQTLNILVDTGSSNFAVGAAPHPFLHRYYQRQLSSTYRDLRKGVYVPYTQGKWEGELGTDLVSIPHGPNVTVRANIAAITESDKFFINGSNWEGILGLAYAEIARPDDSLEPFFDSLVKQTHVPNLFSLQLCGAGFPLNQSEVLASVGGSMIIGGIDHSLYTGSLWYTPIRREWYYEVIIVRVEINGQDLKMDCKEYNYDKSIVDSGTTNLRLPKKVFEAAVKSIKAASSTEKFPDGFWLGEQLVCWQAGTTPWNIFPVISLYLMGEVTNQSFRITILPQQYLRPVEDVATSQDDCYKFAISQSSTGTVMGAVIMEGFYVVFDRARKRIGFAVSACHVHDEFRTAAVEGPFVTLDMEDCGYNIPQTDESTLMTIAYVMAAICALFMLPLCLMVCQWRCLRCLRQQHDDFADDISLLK

[4] = target: AChE (Homo sapiens, UniProt P22303); assay: Kinetic study against AChE (Lineweaver-Burk and Dixon plots)
AChE, sequence (P22303 32-614): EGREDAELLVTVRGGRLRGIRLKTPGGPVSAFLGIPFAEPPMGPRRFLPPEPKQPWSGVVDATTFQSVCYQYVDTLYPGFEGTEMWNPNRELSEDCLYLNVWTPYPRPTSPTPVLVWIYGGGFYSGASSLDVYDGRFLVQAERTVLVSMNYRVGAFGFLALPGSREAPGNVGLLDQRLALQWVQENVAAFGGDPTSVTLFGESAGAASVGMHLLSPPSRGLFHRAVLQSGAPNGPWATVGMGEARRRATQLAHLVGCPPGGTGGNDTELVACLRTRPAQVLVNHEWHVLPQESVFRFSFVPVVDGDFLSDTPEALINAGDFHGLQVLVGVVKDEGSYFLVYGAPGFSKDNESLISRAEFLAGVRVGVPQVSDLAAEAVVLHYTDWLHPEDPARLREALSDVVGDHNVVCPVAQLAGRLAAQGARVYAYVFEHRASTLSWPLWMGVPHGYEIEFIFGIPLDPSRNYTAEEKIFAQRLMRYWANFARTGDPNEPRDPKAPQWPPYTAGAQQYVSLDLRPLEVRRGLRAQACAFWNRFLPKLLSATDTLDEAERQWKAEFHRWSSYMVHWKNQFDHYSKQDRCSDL
Procedure: (§1) The experiment was performed using different inhibitor (2h, 3b or 3p) concentrations (0, 2.5, 3.5 and 5 µM) and substrate (acetylthiocholine iodide (ACh) or butyrylthiocholine iodide (BCh) concentrations (0.1, 0.5, 2.5 and 5 µM). The reaction was carried out in triplicate and the absorbences were measured at 412 nm after every 1 s. A linear graph of the absorbences against time were plotted to obtain the velocity. Finally, the lineweaver burk plot (reciprocal of the velocity versus reciprocal of the subtrate concentrations) was plotted. as well as the Dixon plot (reciprocal of the velocity versus inhibitor concentration). The inhibition constant Ki, was determined by calculating the straight line equations and identifying the point at which the lines would intersect.

[5] = target: BChE (Homo sapiens, UniProt P06276); assay: Kinetic study against BChE (Lineweaver-Burk and Dixon plots); settings: for Ki: Dixon plot, substrate butyrylthiocholine iodide; for mode of inhibition of BChE: kinetic analysis
BChE, sequence (P06276 29-602): as the sequence (P06276 29-602) above
Procedure: as §1

[6] = mean ± SD, three independent experiments

acetylcholinesterase (AChE), sequence (P22303 32-614): as the sequence (P22303 32-614) above

With O=C(/C=C/c1ccccc1)c1cc(I)c(F)cc1O [Compound 2a, (E)-1-(4-Fluoro-2-hydroxy-5-iodophenyl)-3-phenylpropenone] the “SI BChE/AChE” value [1] was 0.72, the IC50 [1, 6] was 38.78 ± 0.01 µM and the “SI AChE/BChE” value [2] was 1.38. It also gave an IC50 [2, 6] of 28.06 ± 0.1 µM.
With COc1cc(O)c(C(=O)/C=C/c2ccc(F)cc2)cc1I [Compound 2n, (E)-3-(4-Fluorophenyl)-1-(2-hydroxy-5-iodo-4-methoxyphenyl)prop-2-en-1-one] the “SI BChE/AChE” value [1] was 0.63, the IC50 [1, 6] was 9.38 ± 0.07 µM and the IC50 [3] was 25.07 ± 0.1 µM. The “SI AChE/BChE” value [2] was 1.59 and the IC50 [2, 6] was 5.91 ± 0.05 µM.
COc1cc2oc(-c3ccccc3)c(O)c(=O)c2cc1I [Compound 3m, 3-Hyd.roxy-6-iodo-7-methoxy-2-phenyl-4H-chromen-4-one] was tested, and the IC50 [1] was 9.25 ± 0.09 µM, the “SI BChE/AChE” value [1] was 1.14 and the IC50 [2] was 10.5 ± 0.02 µM. For the same compound, the “SI AChE/BChE” value [2] was 0.88.
O=c1c(O)c(-c2ccc(F)cc2)oc2cc(F)c(I)cc12 [Compound 3b, 7-Flu.oro-2-(4-fluorophenyl)-3-hydroxy-6-iodo-4H-chromen-4-one] was tested, and the Ki ([4]; Dixon plot, substrate acetylthiocholine iodide) was 4.34 ± 1.1 µM, the “mode of inhibition of AChE” value ([4]; kinetic analysis) was “mixed type of inhibition” and the “SI BChE/AChE” value [1] was 9.22. The IC50 [1, 6] was 3.23 ± 0.02 µM, the IC50 [3] was 32.18 ± 0.15 µM and the “SI AChE/BChE” value [2] was 0.11. The IC50 [2, 6] was 29.78 ± 0.04 µM.
With O=c1c(O)c(-c2ccccc2)oc2cc(F)c(I)cc12 [Compound 3a, 7-Flu.oro-3-hydroxy-6-iodo-2-phenyl-4H-chromen-4-one] the IC50 [1] was 29.71 ± 0.01 µM, the “SI BChE/AChE” value [1] was 0.91 and the IC50 [2] was 27.01 ± 0.06 µM. The “SI AChE/BChE” value [2] was 1.10.
With O=c1c(O)c(-c2ccccc2)oc2cc(Cl)c(I)cc12 [Compound 3e, 7-Chl.oro-3-hydroxy-6-iodo-2-phenyl-4H-chromen-4-one] the IC50 [1] was 47.85 ± 0.04 µM, the “SI BChE/AChE” value [1] was 0.14 and the IC50 [2] was 6.64 ± 0.03 µM. For the same compound, the “SI AChE/BChE” value [2] was 7.21.
For COc1ccc(-c2oc3cc(F)c(I)cc3c(=O)c2O)cc1 [Compound 3d, 7-Flu.oro-3-hydroxy-6-iodo-2-(4-methoxyphenyl)-4H-chromen-4-one], the IC50 [1] was 58.18 ± 0.03 µM, the “SI BChE/AChE” value [1] was 0.50 and the IC50 [2] was 29.41 ± 0.04 µM. For the same compound, the “SI AChE/BChE” value [2] was 1.98.
For COc1ccc(/C=C/C(=O)c2cc(I)c(F)cc2O)cc1 [Compound 2d, (E)-1-(4-Fluoro-2-hydroxy-5-iodophenyl)-3-(4-methoxyphenyl)propenone], the IC50 [1] was 11 ± 0.3 µM, the “SI BChE/AChE” value [1] was 0.78 and the IC50 [2] was 8.49 ± 0.05 µM. For the same compound, the “SI AChE/BChE” value [2] was 1.29.
O=C(/C=C/c1ccc(Cl)cc1)c1cc(I)c(Cl)cc1O [Compound 2g, (E)-1-(4-Chloro-2-hydroxy-5-iodophenyl)-3-(4-chlorophenyl)propenone] was tested, and the IC50 [1] was 11 ± 0.06 µM and the IC50 [2] was over 100 µM.
With O=C(/C=C/c1ccccc1)c1cc(I)c(Cl)cc1O [Compound 2e, (E)-1-(4-Chloro-2-hydroxy-5-iodophenyl)-3-phenylpropenone] the IC50 [1] was 10.64 ± 0.07 µM, the “SI BChE/AChE” value [1] was 2.37 and the IC50 [2] was 25.2 ± 0.3 µM.
With COc1cc(O)c(C(=O)/C=C/c2ccc(Cl)cc2)cc1I [Compound 2o, (E)-3-(4-Chlorophenyl)-1-(2-hydroxy-5-iodo-4-methoxyphenyl)prop-2-en-1-one] the “SI BChE/AChE” value [1] was 1.05, the IC50 [1, 6] was 11.1 ± 0.12 µM and the “SI AChE/BChE” value [2] was 0.95. The IC50 [2, 6] was 11.6 ± 0.17 µM.
With COc1ccc(/C=C/C(=O)c2cc(I)c(Br)cc2O)cc1 [Compound 2l, (E)-1-(4-Bromo-2-hydroxy-5-iodophenyl)-3-(4-methoxyphenyl)propenone] the IC50 [1] was 10.51 ± 0.03 µM, the “SI BChE/AChE” value [1] was 1.45 and the IC50 [2] was 15.25 ± 0.01 µM. For the same compound, the “SI AChE/BChE” value [2] was 0.69.
O=C(/C=C/c1ccc(F)cc1)c1cc(I)c(F)cc1O [Compound 2b, (E)-1-(4-Fluoro-2-hydroxy-5-iodophenyl)-3-(4-fluorophenyl)propenone] was tested, and the IC50 [1] was 16.6 ± 0.03 µM, the “SI BChE/AChE” value [1] was 1.19 and the IC50 [2] was 19.73 ± 0.05 µM. The “SI AChE/BChE” value [2] was 0.84.
With O=c1c(O)c(-c2ccc(F)cc2)oc2cc(Br)c(I)cc12 [Compound 3j, 7-Bro.mo-2-(4-fluorophenyl)-3-hydroxy-6-iodo-4H-chromen-4-one] the IC50 [1] was 11.16 ± 0.01 µM, the “SI BChE/AChE” value [1] was 2.42 and the IC50 [2] was 27.01 ± 0.07 µM. The “SI AChE/BChE” value [2] was 0.41.
COc1ccc(/C=C/C(=O)c2cc(I)c(Cl)cc2O)cc1 [Compound 2h, (E)-1-(4-Chloro-2-hydroxy-5-iodophenyl)-3-(4-methoxyphenyl)propenone] was tested, and the “SI BChE/AChE” value [1] was 0.36, the IC50 [1, 6] was 11.72 ± 0.07 µM and the IC50 [3] was 13.82 ± 0.03 µM. The Ki [5] was 1360 ± 170 nM, the “mode of inhibition of BChE” value [5] was “non-competitive inhibitor” and the “SI AChE/BChE” value [2] was 2.81. The IC50 [2, 6] was 4.17 ± 0.15 µM.
For O=c1c(O)c(-c2ccc(Cl)cc2)oc2cc(Cl)c(I)cc12 [Compound 3g, 7-Chl.oro-2-(4-chlorophenyl)-3-hydroxy-6-iodo-4H-chromen-4-one], the IC50 [1] was 59.1 ± 0.05 µM, the “SI BChE/AChE” value [1] was 0.13 and the IC50 [2] was 7.69 ± 0.01 µM. For the same compound, the “SI AChE/BChE” value [2] was 7.69.
In the case of O=c1c(O)c(-c2ccc(Cl)cc2)oc2cc(F)c(I)cc12 [Compound 3c, 2-(4-C.hlorophenyl)-7-fluoro-3-hydroxy-6-iodo-4H-chromen-4-one], the “SI BChE/AChE” value [1] is reported as 10.8, the IC50 [1, 6] is reported as 3.45 ± 0.07 µM and the IC50 [3] is reported as 19.69 ± 0.05 µM. The “SI AChE/BChE” value [2] was 0.09 and the IC50 [2, 6] was 37.51 ± 0.08 µM.
COc1ccc(-c2oc3cc(OC)c(I)cc3c(=O)c2O)cc1 [Compound 3p, 3-Hyd.roxy-6-iodo-7-methoxy-2-(4-methoxyphenyl)-4H-chromen-4-one] was tested, and the “SI BChE/AChE” value [1] was 0.45, the IC50 [1, 6] was 7.19 ± 0.02 µM and the IC50 [3] was 22.44 ± 0.07 µM. For the same compound, the Ki [5] was 460 ± 160 nM, the “mode of inhibition of BChE” value [5] was “mixed kinetic type of inhibition” and the “SI AChE/BChE” value [2] was 2.18. For the same compound, the IC50 [2, 6] was 3.29 ± 0.03 µM.
For COc1ccc(-c2oc3cc(Cl)c(I)cc3c(=O)c2O)cc1 [Compound 3h, 7-Chl.oro-3-hydroxy-6-iodo-2-(4-methoxyphenyl)-4H-chromen-4-one], the “SI BChE/AChE” value [1] was 0.40, the IC50 [1, 6] was 14.33 ± 0.03 µM and the “SI AChE/BChE” value [2] was 2.51. It also gave an IC50 [2, 6] of 5.72 ± 0.01 µM.
In the case of O=c1c(O)c(-c2ccc(F)cc2)oc2cc(Cl)c(I)cc12 [Compound 3f, 7-Chl.oro-2-(4-fluorophenyl)-3-hydroxy-6-iodo-4H-chromen-4-one], the IC50 [1] is reported as 38.39 ± 0.02 µM, the “SI BChE/AChE” value [1] is reported as 0.47 and the IC50 [2] is reported as 18.17 ± 0.1 µM. The “SI AChE/BChE” value [2] was 2.11.
In the case of O=C(/C=C/c1ccc(Cl)cc1)c1cc(I)c(F)cc1O [Compound 2c, (E)-3-(4-chlorophenyl)-1-(4-fluoro-2-hydroxy-5-iodophenyl)prop-2-en-1-one], the “SI BChE/AChE” value [1] is reported as 1.39, the IC50 [1, 6] is reported as 10.5 ± 0.08 µM and the “SI AChE/BChE” value [2] is reported as 0.72. For the same compound, the IC50 [2, 6] was 14.58 ± 0.14 µM.
In the case of O=c1c(O)c(-c2ccc(Cl)cc2)oc2cc(Br)c(I)cc12 [Compound 3k, 7-Bro.mo-2-(4-chlorophenyl)-3-hydroxy-6-iodo-4H-chromen-4-one], the IC50 [1] is reported as 29.24 ± 0.03 µM, the “SI BChE/AChE” value [1] is reported as 0.18 and the IC50 [2] is reported as 5.25 ± 0.01 µM. For the same compound, the “SI AChE/BChE” value [2] was 5.57.
O=C(/C=C/c1ccccc1)c1cc(I)c(Br)cc1O [Compound 2i, (E)-1-(4-Bromo-2-hydroxy-5-iodophenyl)-3-phenylpropenone] was tested, and the IC50 [1] was 58.14 ± 0.21 µM, the “SI BChE/AChE” value [1] was 0.24 and the IC50 [2] was 14.11 ± 0.11 µM. For the same compound, the “SI AChE/BChE” value [2] was 4.12.
With COc1cc2oc(-c3ccc(F)cc3)c(O)c(=O)c2cc1I [Compound 3n, 2-(4-F.luorophenyl)-3-hydroxy-6-iodo-7-methoxy-4H-chromen-4-one] the IC50 [1] was 6.15 ± 0.01 µM, the “SI BChE/AChE” value [1] was 1.29 and the IC50 [2] was 7.93 ± 0.06 µM. For the same compound, the “SI AChE/BChE” value [2] was 0.76.
With COc1ccc(/C=C/C(=O)c2cc(I)c(OC)cc2O)cc1 [Compound 2p, (E)-1-(2-Hydroxy-5-iodo-4-methoxyphenyl)-3-(4-methoxyphenyl)prop-2-en-1-one] the “SI BChE/AChE” value [1] was 0.45, the IC50 [1, 6] was 10.96 ± 0.03 µM and the IC50 [3] was 70.79 ± 0.2 µM. The “SI AChE/BChE” value [2] was 2.24 and the IC50 [2, 6] was 4.89 ± 0.02 µM.
With COc1cc2oc(-c3ccc(Cl)cc3)c(O)c(=O)c2cc1I [Compound 3o, 2-(4-C.hlorophenyl)-3-hydroxy-6-iodo-7-methoxy-4H-chromen-4-one] the IC50 [1] was 55.27 ± 0.04 µM, the “SI BChE/AChE” value [1] was 0.24 and the IC50 [2] was 13.7 ± 0.14 µM. The “SI AChE/BChE” value [2] was 4.03.
With O=C(/C=C/c1ccc(F)cc1)c1cc(I)c(Cl)cc1O [Compound 2f, (E)-1-(4-Chloro-2-hydroxy-5-iodophenyl)-3-(4-fluorophenyl)propenone] the “SI BChE/AChE” value [1] was 1.87, the IC50 [1, 6] was 9.57 ± 0.2 µM and the “SI AChE/BChE” value [2] was 0.54. The IC50 [2, 6] was 17.86 ± 0.08 µM.
For COc1cc(O)c(C(=O)/C=C/c2ccccc2)cc1I [Compound 2m, (E)-1-(2-Hydroxy-5-iodo-4-methoxyphenyl)-3-phenylprop-2-en-1-one], the “SI BChE/AChE” value [1] was 0.95, the IC50 [1, 6] was 10.01 ± 0.09 µM and the “SI AChE/BChE” value [2] was 1.05. For the same compound, the IC50 [2, 6] was 9.52 ± 0.03 µM.
O=C(/C=C/c1ccc(Cl)cc1)c1cc(I)c(Br)cc1O [Compound 2k, (E)-1-(4-Bromo-2-hydroxy-5-iodophenyl)-3-(4-chlorophenyl)propenone] was tested, and the IC50 [1] was 11.56 ± 0.05 µM, the “SI BChE/AChE” value [1] was 0.90 and the IC50 [2] was 10.44 ± 0.09 µM. The “SI AChE/BChE” value [2] was 1.11.
For O=c1c(O)c(-c2ccccc2)oc2cc(Br)c(I)cc12 [Compound 3i, 7-Bro.mo-3-hydroxy-6-iodo-2-phenyl-4H-chromen-4-one], the IC50 [1] was 9.96 ± 0.01 µM, the “SI BChE/AChE” value [1] was 0.57 and the IC50 [2] was 5.76 ± 0.04 µM. The “SI AChE/BChE” value [2] was 1.73.
